Measurements: EPA's ToxValDB 9.5 (doi:10.2903/j.efsa.2011.2417)
In brackets after ≈: the same amount, converted by molar mass.

Tests used:
Tagia sp. = details: acute; mortality
Apis mellifera = details: acute; duration: 48 hours; oral; unspecified; mortality
Canidae = details: oral, Dog Other, hematological
Daphnia magna = details: chronic/long-term; duration: 21 days; reproduction
Anas platyrhynchos = details: short-term; oral; feed; mortality
Typhlodromus pyri = details: not reported; mortality
Rattus norvegicus = details: chronic; duration: 2 years; organ weight
Colinus virginianus = details: mortality

For `CCSC(C)CC1CC(=O)C(C(CC)=NOC/C=C/Cl)=C(O)C1` (configuration not stated) [Clethodim], the LC50 (Tagia sp.) was 129 mg/kg, the LD50 (Apis mellifera) was over 43 µg/piece and the NOAEL (Canidae; chronic, duration: 1 years) was 21 mg/kg-day. It also gave an NOAEL (Canidae; subchronic, duration: 90 days) of 21 mg/kg-day, an LC50 (Oncorhynchus mykiss; acute, duration: 96 hours, mortality) of 25 µg/mL (≈ 69.5 µM) and an NOEC (Oncorhynchus mykiss; chronic/long-term, duration: 21 days) of 3.9 mg/L. The NOEC (Daphnia magna) was 49 mg/L, the LC50 (Anas platyrhynchos) was over 851 mg/kg-day and the LEL (Typhlodromus pyri) was 9.6 g/ha. It also gave an NOAEL (Rattus norvegicus) of 16 mg/kg-day, an LD50 (Colinus virginianus; acute, oral) of over 1640 mg/kg and an NOEL (Colinus virginianus; reproduction developmental) of 17 mg/kg-day.
